Experimental data published in patent US9850247B2 (Almac Discovery Limited, priority 2013, dated 2017).

Assays:
[1] = target: T1, Wee-1 kinase (Homo sapiens, UniProt P30291); assay: Measurement of Wee-1 kinase activity (ADP-Glo luminescent kit); assay type: biochemical
T1 construct: purchased Invitrogen PV3817
Procedure: Method 1: Measurement of Wee-1 Kinase Activity
In the measurement of Wee-1 activity, a commercial peptide Poly(Lys Tyr (4:1)) hydrobromide was purchased from Sigma Aldrich and used as the substrate. Activated Wee-1 kinase was purchased from Invitrogen (PV3817) and an ADP-Glo luminescent kit was purchased from Promega.
All reactions took place in […] volumes in reaction buffer containing 40 mM Tris-HCl and 20 mM magnesium chloride, supplemented with 0.1 mg/mL bovine serum albumin and 2 mM DTT. Compounds were serially diluted in buffer and 5 μL of each concentration pipetted into a white 384 well plate (Sigma Aldrich M6186). A 5 μL aliquot of the Wee-1 enzyme was added to each well and the plate centrifuged for 1 min to ensure mixing of the enzyme and inhibitor.
The plate was incubated at room temperature for 30 minutes before the addition of 2.0 μg/mL of substrate and 30 μM ATP in a 5 μL aliquot. The plate was centrifuged for one minute and incubated for 1 h at RT.
15 µL of ADP-Glo stop reagent was added to each well to quench the reaction and deplete unconverted ATP. The plate was incubated for a further 40 min in the dark at RT.
30 μL of ADP-Glo kinase detection reagent was added to each well, converting ADP to ATP, catalysing the generation of luciferin by luciferase. The plate was shaken for 1 min, and incubated in the dark for an additional hour.
Luminescence from each well was detected using the Biotek Synergy4 HD plate reader and the percentage inhibition of kinase activity calculated for each inhibitor tested. Positive (kinase only) and negative (no kinase) controls were added to each plate to ensure specific interaction of kinase and inhibitor. The IC50 concentration for each inhibitor was calculated by plotting the percentage kinase inhibition against concentration of inhibitor and the curve generated by non-linear regression fitting.

[2] = CLint estimates using human liver microsomes (Method 4); assay type: in vitro ADME; conditions: pH 7.4, 1 μM compound, read-out: Mics - CLint (HLM CLint)
Procedure: Method 4: Determination of CLint Estimates Using Human liver microsomes Test compounds (final concentration=1 μM; final DMSO concentration=0.1%) were incubated in 0.1 M phosphate buffer pH 7.4 with human liver microsomes (0.5 mg of protein/mL) at 37° C. Reactions were started by addition of NADPH in 0.1 M phosphate buffer pH 7.4 (final concentration 1 mM). 40 μL aliquots were removed at 2, 5, 10, 15, 20, 30, 40 and 50 min. Reactions were quenched in 80 μL of ice-cold methanol. Samples were subsequently frozen overnight then centrifuged at 3500 rpm for 20 min at 4° C. The supernatants were removed and transferred into analytical plates and analysed by LC/MS/MS. LC/MS/MS Method: All samples were analysed on a Waters Acquity I-Class coupled to a Waters Xevo TQD mass spectrometer. A Waters BEH C18 2.1×50 mm 1.7 μm column was used and mobile phases were water and methanol containing 0.1% formic acid as modifier. Analysis was by multiple reaction monitoring and conditions were optimised for each test compound. Data Analyses: From a plot of 1n peak area against time, the gradient of the line is determined. Subsequently, half-life and intrinsic clearance are calculated using the following equations. [formula] [formula] [formula] where V=Incubation volume (μL)/number of cells Method 5: Determination of Kinetic Solubility (in PBS Buffer)

T1 sequence (P30291 whole entry): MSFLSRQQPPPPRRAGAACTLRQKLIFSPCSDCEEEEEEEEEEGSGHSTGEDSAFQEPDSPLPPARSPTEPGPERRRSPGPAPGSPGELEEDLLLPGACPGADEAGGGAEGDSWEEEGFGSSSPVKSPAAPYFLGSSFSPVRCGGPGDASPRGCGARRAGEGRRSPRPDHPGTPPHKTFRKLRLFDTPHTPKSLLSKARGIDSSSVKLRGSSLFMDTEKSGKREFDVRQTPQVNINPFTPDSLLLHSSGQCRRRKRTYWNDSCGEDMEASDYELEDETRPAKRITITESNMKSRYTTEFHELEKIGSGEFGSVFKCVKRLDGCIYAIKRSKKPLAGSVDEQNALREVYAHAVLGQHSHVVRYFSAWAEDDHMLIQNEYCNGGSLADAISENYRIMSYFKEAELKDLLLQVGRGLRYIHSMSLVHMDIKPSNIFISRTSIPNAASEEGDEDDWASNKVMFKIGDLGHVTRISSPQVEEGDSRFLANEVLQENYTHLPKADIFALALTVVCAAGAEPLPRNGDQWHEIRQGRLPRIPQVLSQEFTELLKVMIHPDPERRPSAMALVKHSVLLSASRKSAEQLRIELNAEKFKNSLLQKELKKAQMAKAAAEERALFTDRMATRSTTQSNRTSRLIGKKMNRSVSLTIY

IC50 [1] | microsomal CLint at 1 μM [2] | SMILES
10 to 100 nM | ≤ 15 µL/min/mg | Cc1cc(Nc2ncc3c(n2)N(C)CN(c2c(Cl)cccc2Cl)C3=O)ccc1N1C[C@H]2C[C@@H]1CN2 [Example 118, 7-((4-((1R,4R)-2,5-diazabicyclo[2.2.1]heptan-2-yl)-3-methylphenyl)amino)-3-(2,6-dichlorophenyl)-1-methyl-2,3-dihydropyrimido[4,5-d]pyrimidin-4(1H)-one]
≥ 100 nM | 15 to 50 µL/min/mg | CN1CN(c2c(Cl)cccc2Cl)C(=O)c2cnc(Nc3ccc(N4CCN(C5CC5)CC4)cc3)nc21 [Example 115, 7-((4-(4-cyclopropylpiperazin-1-yl)phenyl)amino)-3-(2,6-dichlorophenyl)-1-methyl-2,3-dihydropyrimido[4,5-d]pyrimidin-4(1H)-one]
10 to 100 nM | ≤ 15 µL/min/mg | Cc1cc(Nc2ncc3c(n2)N(C)CN(c2ccccc2Cl)C3=O)ccc1N1C[C@@H]2C[C@H]1CN2 [Example 109, 7-((4-((1S,4S)-2,5-diazabicyclo[2.2.1]heptan-2-yl)-3-methylphenyl)amino)-3-(2-chlorophenyl)-1-methyl-2,3-dihydropyrimido[4,5-d]pyrimidin-4(1H)-one]
10 to 100 nM | ≤ 15 µL/min/mg | C[C@@H]1CN(c2ccc(Nc3ncc4c(n3)N(C)CN(c3ccccc3Cl)C4=O)cc2)[C@@H](C)CN1 [Example 111, 3-(2-chlorophenyl)-7-((4-((2S,5R)-2,5-dimethylpiperazin-1-yl)phenyl)amino)-1-methyl-2,3-dihydropyrimido[4,5-d]pyrimidin-4(1H)-one]
10 to 100 nM | 15 to 50 µL/min/mg | C[C@@H]1CN(c2ccc(Nc3ncc4c(n3)N(C)CN(c3c(Cl)cccc3Cl)C4=O)cc2)CCN1C [Example 32, (R)-3-(2,6-dichlorophenyl)-7-((4-(3,4-dimethylpiperazin-1-yl)phenyl)amino)-1-methyl-2,3-dihydropyrimido[4,5-d]pyrimidin-4(1H)-one]
10 to 100 nM | ≤ 15 µL/min/mg | CN1CCC(Nc2cccc(Nc3ncc4c(n3)N(C)CN(c3c(Cl)cccc3Cl)C4=O)c2)CC1 [Example 91, 3-(2,6-dichlorophenyl)-1-methyl-7-((3-((1-methylpiperidin-4-yl)amino)phenyl)amino)-2,3-dihydropyrimido[4,5-d]pyrimidin-4(1H)-one]
10 to 100 nM | 15 to 50 µL/min/mg | COc1cc(Nc2ncc3c(n2)N(C)CN(c2c(Cl)cccc2Cl)C3=O)ccc1N1C[C@@H]2C[C@H]1CN2C [Example 84, 3-(2,6-dichlorophenyl)-7-((3-methoxy-4-((1S,4S)-5-methyl-2,5-diazabicyclo[2.2.1]heptan-2-yl)phenyl)amino)-1-methyl-2,3-dihydropyrimido[4,5-d]pyrimidin-4(1H)-one]
10 to 100 nM | 15 to 50 µL/min/mg | CN1CN(c2c(Cl)cccc2Cl)C(=O)c2cnc(Nc3ccc(N4CCN(C)[C@@H](CO)C4)cc3)nc21 [Example 34, (R)-3-(2,6-dichlorophenyl)-7-((4-(3-(hydroxymethyl)-4-methylpiperazin-1-yl)phenyl)amino)-1-methyl-2,3-dihydropyrimido[4,5-d]pyrimidin-4(1H)-one]
≤ 10 nM | ≤ 15 µL/min/mg | CC(=O)N1CCN(c2ccc(Nc3ncc4c(n3)N(C)CN(c3c(Cl)cccc3Cl)C4=O)cc2CN2CCCC2)CC1 [Example 138, 7-((4-(4-acetylpiperazin-1-yl)-3-(pyrrolidin-1-ylmethyl)phenyl)amino)-3-(2,6-dichlorophenyl)-1-methyl-2,3-dihydropyrimido[4,5-d]pyrimidin-4(1H)-one]
10 to 100 nM | ≤ 15 µL/min/mg | CN1CN(c2c(Cl)cccc2Cl)C(=O)c2cnc(Nc3ccc(C4CCNCC4)cc3)nc21 [Example 119, 3-(2,6-dichlorophenyl)-1-methyl-7-((4-(piperidin-4-yl)phenyl)amino)-2,3-dihydropyrimido[4,5-d]pyrimidin-4(1H)-one]
10 to 100 nM | ≤ 15 µL/min/mg | CC(=O)NCc1cc(Nc2ncc3c(n2)N(C)CN(c2c(Cl)cccc2Cl)C3=O)ccc1N1CCNCC1 [Example 145, N-(5-((6-(2,6-dichlorophenyl)-8-methyl-5-oxo-5,6,7,8-tetrahydropyrimido[4,5-d]pyrimidin-2-yl)amino)-2-(piperazin-1-yl)benzyl)acetamide]
10 to 100 nM | 15 to 50 µL/min/mg | COC[C@@H]1CNCCN1c1ccc(Nc2ncc3c(n2)N(C)CN(c2c(Cl)cccc2Cl)C3=O)cc1 [Example 130, (S)-3-(2,6-dichlorophenyl)-7-((4-(2-(methoxymethyl)piperazin-1-yl)phenyl)amino)-1-methyl-2,3-dihydropyrimido[4,5-d]pyrimidin-4(1H)-one]
10 to 100 nM | ≤ 15 µL/min/mg | CN1CN(c2c(Cl)cccc2Cl)C(=O)c2cnc(Nc3ccc(N4CCN[C@H](CO)C4)c(F)c3)nc21 [Example 48, (S)-3-(2,6-dichlorophenyl)-7-((3-fluoro-4-(3-(hydroxymethyl)piperazin-1-yl)phenyl)amino)-1-methyl-2,3-dihydropyrimido[4,5-d]pyrimidin-4(1H)-one]
10 to 100 nM | ≥ 50 µL/min/mg | CNCc1cc(Nc2ncc3c(n2)N(C)CN(c2c(Cl)cccc2Cl)C3=O)ccc1N1CCCCC1 [Example 136, 3-(2,6-dichlorophenyl)-1-methyl-7-((3-((methylamino)methyl)-4-(piperidin-1-yl)phenyl)amino)-2,3-dihydropyrimido[4,5-d]pyrimidin-4(1H)-one]
10 to 100 nM | ≤ 15 µL/min/mg | CN1CN(c2c(Cl)cccc2Cl)C(=O)c2cnc(Nc3ccc(OC4CCNCC4)cc3)nc21 [Example 87, 3-(2,6-dichlorophenyl)-1-methyl-7-((4-(piperidin-4-yloxy)phenyl)amino)-2,3-dihydropyrimido[4,5-d]pyrimidin-4(1H)-one]
10 to 100 nM | ≤ 15 µL/min/mg | COCc1cc(Nc2ncc3c(n2)N(C)CN(c2c(Cl)cccc2Cl)C3=O)ccc1N1CCN(C)[C@H](C)C1 [Example 67, (R)-3-(2,6-dichlorophenyl)-7-((4-(3,4-dimethylpiperazin-1-yl)-3-(methoxymethyl)phenyl)amino)-1-methyl-2,3-dihydropyrimido[4,5-d]pyrimidin-4(1H)-one]
10 to 100 nM | ≤ 15 µL/min/mg | CNCc1cc(Nc2ncc3c(n2)N(C)CN(c2c(Cl)cccc2Cl)C3=O)ccc1Br [Example 157, 7-((4-bromo-3-((methylamino)methyl)phenyl)amino)-3-(2,6-dichlorophenyl)-1-methyl-2,3-dihydropyrimido[4,5-d]pyrimidin-4(1H)-one]
10 to 100 nM | 15 to 50 µL/min/mg | CNCc1cc(Nc2ncc3c(n2)N(C)CN(c2c(Cl)cccc2Cl)C3=O)ccc1-c1cccnc1 [Example 156, 3-(2,6-dichlorophenyl)-1-methyl-7-((3-((methylamino)methyl)-4-(pyridin-3-yl)phenyl)amino)-2,3-dihydropyrimido[4,5-d]pyrimidin-4(1H)-one]
10 to 100 nM | 15 to 50 µL/min/mg | CN1CN(c2c(Cl)cccc2Cl)C(=O)c2cnc(Nc3ccc(N4CCS(=O)(=O)CC4)cc3)nc21 [Example 42, 3-(2,6-dichlorophenyl)-7-((4-(1,1-dioxidothiomorpholino)phenyl)amino)-1-methyl-2,3-dihydropyrimido[4,5-d]pyrimidin-4(1H)-one]
≥ 100 nM | 15 to 50 µL/min/mg | C[C@@H]1CN(c2ccc(Nc3ncc4c(n3)N(C)CN(c3c(Cl)cccc3Cl)C4=O)c(F)c2)CCN1 [Example 142, (R)-3-(2,6-dichlorophenyl)-7-((2-fluoro-4-(3-methylpiperazin-1-yl)phenyl)amino)-1-methyl-2,3-dihydropyrimido[4,5-d]pyrimidin-4(1H)-one]
10 to 100 nM | ≤ 15 µL/min/mg | Cc1cccc(Cl)c1N1CN(C)c2nc(Nc3ccc(N4C[C@H](C)NC[C@H]4C)cc3)ncc2C1=O [Example 102, 3-(2-chloro-6-methylphenyl)-7-((4-((2R,5S)-2,5-dimethylpiperazin-1-yl)phenyl)amino)-1-methyl-2,3-dihydropyrimido[4,5-d]pyrimidin-4(1H)-one]
